{
  "source": "paper PMC12670395",
  "about": "“Structural Rationalization of IPMK Inhibitor Potency” (Journal of Medicinal Chemistry, 2025)",
  "key": {"[1]": {"target": "IP3K-A (Homo sapiens, UniProt P23677)", "sequence (P23677 whole entry)": "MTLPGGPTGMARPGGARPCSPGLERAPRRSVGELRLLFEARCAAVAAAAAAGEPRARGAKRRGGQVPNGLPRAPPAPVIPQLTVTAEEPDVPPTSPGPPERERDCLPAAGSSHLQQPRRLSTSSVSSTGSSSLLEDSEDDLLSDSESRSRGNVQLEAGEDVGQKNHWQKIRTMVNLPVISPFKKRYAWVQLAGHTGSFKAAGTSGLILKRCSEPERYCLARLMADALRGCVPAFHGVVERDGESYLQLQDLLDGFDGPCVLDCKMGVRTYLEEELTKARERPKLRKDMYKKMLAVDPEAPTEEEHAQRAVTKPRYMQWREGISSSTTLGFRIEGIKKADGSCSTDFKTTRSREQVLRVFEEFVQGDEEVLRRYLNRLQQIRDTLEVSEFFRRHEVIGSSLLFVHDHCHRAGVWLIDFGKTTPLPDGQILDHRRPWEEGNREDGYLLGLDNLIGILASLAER", "test": "IP3K kinase activity assay ([3H]-InsP3, HPLC)", "assay_type": "biochemical", "conditions": "1.0 μM 1,4,5-InsP3, 1.0 mM ATP, 0.25 nM IP3K-A; standard error, n = 3", "experimental": "(§1) For all enzyme assays, a serial dilution of the enzyme was performed in the kinase assay to determine the linear range of the enzyme concentration to be used.\nEach reaction contained 1.0 μM [^3H]-1,4,5-InsP3 (approximately 30,000 dpm; American Radiolabeled Chemicals, Inc., ART 0270) in a 100 μL incubation containing 20 mM HEPES (pH 7.2), 100 mM KCl, 3.5 mM MgCl2, 20 μM EDTA, 1.0 mM ATP, 1.0 μM 1,4,5-InsP3, plus test compound in DMSO (or vehicle control), and 0.25 nM IP3K-A. Reactions were quenched after 60 min by the addition of 2 volumes of 0.2 M NH4H2PO4, pH 3.9 and 20 mM EDTA and stored at 27 °C. Assays were analyzed by HPLC, using a PartiSphere SAX 120 Å, 5 μm, 4.6 × 125 mm HPLC column with a 250 μL injection volume. The elution gradient was generated by mixing Buffer A (1 mm Na2EDTA) with Buffer B (Buffer A plus 2.5 M NH4H2PO4, pH 3.9) and monitored by a β-RAM 6 in-line scintillation detector. A 1.0 mL/min elute was mixed with 0.5 or 2.5 mL/min monoflow scintillation liquid for ^33P or ^3H, respectively. Radiochromatography data were collected and analyzed using Laura software (v6.1.2.36)."}, "[2]": {"target": "T1, human IPMK (Homo sapiens, UniProt Q8NFU5)", "T1 sequence (Q8NFU5 with tags, fused parts or gaps)": "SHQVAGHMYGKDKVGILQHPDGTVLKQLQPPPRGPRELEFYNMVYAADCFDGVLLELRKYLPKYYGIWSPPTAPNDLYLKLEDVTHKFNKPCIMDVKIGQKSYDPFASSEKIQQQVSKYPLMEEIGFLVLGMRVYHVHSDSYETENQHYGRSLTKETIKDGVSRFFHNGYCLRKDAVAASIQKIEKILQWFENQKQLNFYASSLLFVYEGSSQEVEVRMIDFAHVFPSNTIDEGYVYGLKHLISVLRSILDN", "test": "Isothermal titration calorimetry (ITC)", "assay_type": "binding", "conditions": "15 μM IPMK in cell, 150 μM inhibitor in syringe, 25 °C, pH 7.2", "experimental": "Isothermal calorimetry experiments were performed using a MicroCal PEAQ-ITC (Malvern Panalytical) with 15 μM recombinant human IPMK in the sample cell and 150 μM inhibitor 1 in the syringe, each of which was maintained at 25 °C in buffer containing 20 mM Tris-HCl, pH 7.2, 150 mM KCl, 0.05 mM EDTA, and 0.8 mM MgCl2. The sample cell (volume = 204 μL) and the syringe were cleaned before each run. Thermograms were constructed from 20 injections, each of which involved 2.0 μL of ligand delivered for 4.0 s, with an equilibration time of 150–300 s between each injection. The stirring speed was set to 750 rpm. Data were fitted to a single binding site model using the analysis software provided by the manufacturer, as supported by X-ray crystallography. At least three runs were performed."}, "[3]": {"target": "T2, human IP6K1 (Homo sapiens, UniProt Q92551)", "T2 construct": "made in house", "T2 sequence (Q92551 whole entry)": "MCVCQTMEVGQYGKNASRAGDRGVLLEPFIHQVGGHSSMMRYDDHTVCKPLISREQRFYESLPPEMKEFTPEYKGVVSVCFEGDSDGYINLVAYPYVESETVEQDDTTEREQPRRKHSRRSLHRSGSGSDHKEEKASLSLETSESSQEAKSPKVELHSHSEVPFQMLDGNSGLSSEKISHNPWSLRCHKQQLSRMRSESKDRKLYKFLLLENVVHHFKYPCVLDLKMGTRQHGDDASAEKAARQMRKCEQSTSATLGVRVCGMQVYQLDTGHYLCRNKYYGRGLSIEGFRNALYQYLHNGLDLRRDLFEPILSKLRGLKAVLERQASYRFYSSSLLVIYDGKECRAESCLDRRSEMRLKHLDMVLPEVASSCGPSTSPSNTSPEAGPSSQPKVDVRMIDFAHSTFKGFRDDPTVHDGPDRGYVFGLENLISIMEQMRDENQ", "test": "IP6K kinase activity assay (enzyme-coupled, malachite green Pi release)", "assay_type": "biochemical", "conditions": "100 nM IP6K1, 25 μM InsP6, 500 μM ATP, 37 °C; mean with standard error, n = 3", "experimental": "as §1\nAn enzyme-coupled assay was used to measure IP6K activity. Enzyme activity was assayed at 37 °C in 50 μL of reaction mixtures containing 100 nM IP6K1, 5.0 μM human Dipp1, 20 mM HEPES (pH 7.2), 100 mM KCl, 3.5 mM MgCl2, 20 μM EDTA, 25 μM InsP6, and 500 μM ATP for 60–120 min. Pi release was determined with a malachite green colorimetric assay. Reactions were quenched by the addition of 100 μL of phosphate detection reagent (36:1 v/v of 2.6% sodium molybdate in 2.5 M HCl: 0.126% malachite green chloride). Phosphate (Pi) release was quantified from the absorbance at 620 nm by using appropriate standards."}, "[4]": {"target": "T1, human IPMK", "test": "IPMK kinase activity assay (33P-radiolabeled HPLC assay)", "assay_type": "biochemical", "conditions": "33P-1,3,4,5-IP4 to InsP5, 1.0 mM ATP, 2 nM IPMK; mean with standard error, n = 3 (compound 1 n = 5)", "experimental": "as §1\n(§2) We prepared ^33P-1,3,4,5-IP4 by incubating 1,4,5-IP3, ^33P-ATP, and IPMK, isolated the product with a 30 K d MW cutoff filter. Each reaction contained trace amounts (4,00,000 disintegrations per minute (dpm)) of ^33P-1,3,4,5-IP4 in a 100 μL incubation containing 20 mM HEPES (pH 7.2), 100 mM KCl, 3.5 mM MgCl2, 20 μM EDTA, 1.0 mM ATP, 1 μM 1,3,4,5-IP4, plus test compound in DMSO (or vehicle control) plus 2 nM IPMK. Assays were analyzed by HPLC, using a PartiSphere SAX 120, 5 μm, 4.6 × 125 mm HPLC column with a 250 μL injection volume. The elution gradient was generated by mixing Buffer A (1 mm Na2EDTA) with Buffer B (Buffer A plus 2.5 M NH4H2PO4, pH 3.9) and monitored by a β-RAM 6 in-line scintillation detector. A 1.0 mL/min elute was mixed with 0.5 or 2.5 mL/min monoflow scintillation liquid for ^33P or ^3H, respectively. Radiochromatography data were collected and analyzed using Laura software (v6.1.2.36)."}, "[5]": {"system": "human IPMK", "test": "IPMK kinase activity assay (33P-radiolabeled HPLC assay)", "assay_type": "biochemical", "conditions": "for selectivity for IPMK over IP6K1: from IC50 values; for IP6K1/IPMK: ratio of IP6K1 IC50 to IPMK IC50", "experimental": "as §1, §2"}, "[6]": {"parameters": "method as in recent work from another group (number not given)", "conditions": "mice, intraperitoneal injection; ref recent work from another group (number not given); cited from earlier work"}, "[7]": {"system": "human U251-MG glioblastoma cells", "parameters": "method as in other studies (number not given)", "conditions": "ref other studies (number not given); cited from earlier work"}},
  "note": "Several values for one entry are separate records, joined by “and”; a condition that tells them apart may be missing. Equal values may be shown once.",
  "data": [
    {"smiles": "Cc1cc(C)cc(-c2onc3ccc(/C=C/C(=O)O)cc23)c1", "note": "[Compound 1]", "values": [
      {"measurement": "IC50", "setting": "[1]", "value": 8000, "unit": "nM"},
      {"measurement": "Kd", "setting": "[2]", "value": 11, "unit": "nM"},
      {"measurement": "IC50", "setting": "[3]", "value": "146 ± 23", "unit": "nM"},
      {"measurement": "IC50", "setting": "[4]", "value": "12.8 ± 2", "unit": "nM"},
      {"measurement": "selectivity for IPMK over IP6K1", "setting": "[5]", "value": "approximately 10 fold"},
      {"measurement": "IP6K1/IPMK", "setting": "[5]", "value": 11.4}
    ]},
    {"smiles": "Cc1cc(C)cc(-c2onc3ccc([C@H]4C[C@@H]4C(=O)O)cc23)c1", "note": "[Compound 2]", "values": [
      {"measurement": "IC50", "setting": "[3]", "value": "45 ± 7", "unit": "nM"},
      {"measurement": "IC50", "setting": "[4]", "value": "8.1 ± 2", "unit": "nM"},
      {"measurement": "IP6K1/IPMK", "setting": "[5]", "value": 5.6}
    ]},
    {"smiles": "Cc1cc(C)cc(-c2onc3ccc(C(=O)O)cc23)c1", "note": "[Compound 3]", "values": [
      {"measurement": "IC50", "setting": "[4]", "value": "29 ± 5", "unit": "nM"},
      {"measurement": "IP6K1/IPMK", "setting": "[5]", "value": 3}
    ]},
    {"smiles": "Cc1cc(C)cc(-c2onc3ccc(-c4nnn[nH]4)cc23)c1", "note": "[Compound 4]", "values": [
      {"measurement": "IC50", "setting": "[3]", "value": "24 ± 6", "unit": "nM"},
      {"measurement": "IC50", "setting": "[4]", "value": "1.9 ± 0.2", "unit": "nM"},
      {"measurement": "IP6K1/IPMK", "setting": "[5]", "value": 13}
    ]},
    {"smiles": "c1ccc(-c2onc3ccc(-c4nnn[nH]4)cc23)cc1", "note": "[Compound 6]", "values": [
      {"measurement": "IC50", "setting": "[3]", "value": "38 ± 8", "unit": "nM"},
      {"measurement": "IC50", "setting": "[4]", "value": "3.8 ± 0.4", "unit": "nM"},
      {"measurement": "selectivity for IPMK over IP6K1", "setting": "[5]", "value": 10, "unit": "fold"},
      {"measurement": "IP6K1/IPMK", "setting": "[5]", "value": 10}
    ]},
    {"smiles": "FC(F)(F)c1ccc(-c2onc3ccc(-c4nnn[nH]4)cc23)cc1", "note": "[Compound 7]", "values": [
      {"measurement": "IC50", "setting": "[4]", "value": "2.5 ± 0.3", "unit": "nM"},
      {"measurement": "IP6K1/IPMK", "setting": "[5]", "value": 9.2}
    ]},
    {"smiles": "FC(F)(F)Oc1ccc(-c2onc3ccc(-c4nnn[nH]4)cc23)cc1", "note": "[Compound 8]", "values": [
      {"measurement": "IC50", "setting": "[3]", "value": "59 ± 14", "unit": "nM"},
      {"measurement": "IC50", "setting": "[4]", "value": "3.3 ± 0.4", "unit": "nM"},
      {"measurement": "IP6K1/IPMK", "setting": "[5]", "value": 13}
    ]},
    {"smiles": "c1ccc(Oc2ccc(-c3onc4ccc(-c5nnn[nH]5)cc34)cc2)cc1", "note": "[Compound 9]", "values": [
      {"measurement": "IC50", "setting": "[3]", "value": "1270 nM and 1300 nM"},
      {"measurement": "IC50", "setting": "[4]", "value": "11 ± 2", "unit": "nM"},
      {"measurement": "IP6K1/IPMK", "setting": "[5]", "value": 115}
    ]},
    {"smiles": "O=C(Nc1ccc(-c2onc3ccc(-c4nnn[nH]4)cc23)cc1)C1CC1", "note": "[Compound 10]", "values": [
      {"measurement": "IC50", "setting": "[3]", "value": "35.8 nM and 36 nM"},
      {"measurement": "IC50", "setting": "[4]", "value": "3.5 ± 0.4", "unit": "nM"},
      {"measurement": "IP6K1/IPMK", "setting": "[5]", "value": 10}
    ]},
    {"smiles": "O=C(Nc1cccc(-c2onc3ccc(-c4nnn[nH]4)cc23)c1)C1CC1", "note": "[Compound 11]", "values": [
      {"measurement": "IC50", "setting": "[3]", "value": "52 nM and 51.8 nM"},
      {"measurement": "IC50", "setting": "[4]", "value": "0.99 nM and 1 nM"},
      {"measurement": "selectivity for IPMK over IP6K1", "setting": "[5]", "value": 50, "unit": "fold"},
      {"measurement": "IP6K1/IPMK", "setting": "[5]", "value": 52}
    ]},
    {"smiles": "c1cc(OC2CCNCC2)cc(-c2onc3ccc(-c4nnn[nH]4)cc23)c1", "note": "[Compound 12]", "values": [
      {"measurement": "IC50", "setting": "[4]", "value": "3.4 ± 0.5", "unit": "nM"},
      {"measurement": "IP6K1/IPMK", "setting": "[5]", "value": 8.8}
    ]},
    {"smiles": "Clc1cnc(Oc2cccc(-c3onc4ccc(-c5nnn[nH]5)cc34)c2)c(Cl)c1", "note": "[Compound 13]", "values": [
      {"measurement": "IC50", "setting": "[3]", "value": "19 ± 4", "unit": "nM"},
      {"measurement": "IC50", "setting": "[4]", "value": "9.5 ± 2", "unit": "nM"},
      {"measurement": "IP6K1/IPMK", "setting": "[5]", "value": 1.9}
    ]},
    {"smiles": "c1cc(-c2onc3ccc(-c4nnn[nH]4)cc23)cc(C2CCN(C3CCC3)CC2)c1", "note": "[Compound 14]", "values": [
      {"measurement": "IC50", "setting": "[4]", "value": "3 nM and 2.8 nM"},
      {"measurement": "clearance, half-life, and volume of distribution", "setting": "[6]", "value": "reasonable"},
      {"measurement": "cellular growth", "setting": "[7]", "value": "decrease"},
      {"measurement": "inositol phosphate metabolism", "setting": "[7]", "value": "decrease"}
    ]},
    {"smiles": "O=C(Nc1cccc(-c2onc3ccc(-c4nnn[nH]4)cc23)c1)C1CCCC1", "note": "[Compound 15]", "values": [
      {"measurement": "IC50", "setting": "[3]", "value": "40.1 ± 4", "unit": "nM"},
      {"measurement": "IC50", "setting": "[4]", "value": "1.1 nM and 1.13 nM"},
      {"measurement": "IP6K1/IPMK", "setting": "[5]", "value": 36}
    ]}
  ]
}
